The NIST ThermoML archive (doi:10.1016/j.jct.2019.02.028)
± gives the expanded uncertainty stated by the source.

Conditions: Gas, Burnett expansion method

[He] [helium]
Conditions | mass density [kg/m3]
323.66 K, 875.31 kPa | 1.297 ± 0.0035
323.67 K, 386.6 kPa | 0.5746 ± 0.0026
323.67 K, 1986.4 kPa | 2.9278 ± 0.0063
323.67 K, 2996.7 kPa | 4.3975 ± 0.0091
323.68 K, 581.96 kPa | 0.8635 ± 0.0029
323.68 K, 1318.2 kPa | 1.9481 ± 0.0046
323.68 K, 4542.5 kPa | 6.6206 ± 0.013
333.58 K, 398.41 kPa | 0.5744 ± 0.0026
333.58 K, 901.91 kPa | 1.2964 ± 0.0035
333.58 K, 1358 kPa | 1.9472 ± 0.0045
333.58 K, 3086.7 kPa | 4.3949 ± 0.0091
333.58 K, 4675.1 kPa | 6.6128 ± 0.013
333.59 K, 2046.3 kPa | 2.926 ± 0.0063
333.62 K, 599.5 kPa | 0.8631 ± 0.0029
343.5 K, 616.99 kPa | 0.8628 ± 0.0028
343.5 K, 1397.8 kPa | 1.9464 ± 0.0045
343.51 K, 928.6 kPa | 1.2959 ± 0.0034
343.51 K, 3177 kPa | 4.3922 ± 0.0091
343.51 K, 4808.1 kPa | 6.6049 ± 0.013
343.52 K, 410.1 kPa | 0.5742 ± 0.0025
343.52 K, 2106 kPa | 2.9243 ± 0.0063
353.39 K, 421.94 kPa | 0.5741 ± 0.0025
353.39 K, 634.63 kPa | 0.8624 ± 0.0028
353.39 K, 3267.2 kPa | 4.3896 ± 0.009
353.39 K, 4938.7 kPa | 6.5971 ± 0.013
353.4 K, 954.95 kPa | 1.2953 ± 0.0034
353.4 K, 1437.5 kPa | 1.9455 ± 0.0044
353.4 K, 2165.8 kPa | 2.9225 ± 0.0062
363.2 K, 2225.1 kPa | 2.9208 ± 0.0062
363.28 K, 1476.9 kPa | 1.9446 ± 0.0044
363.28 K, 5072.4 kPa | 6.5893 ± 0.013
363.29 K, 433.46 kPa | 0.5739 ± 0.0024
363.29 K, 433.47 kPa | 0.5739 ± 0.0024
363.29 K, 652.06 kPa | 0.862 ± 0.0027
363.29 K, 652.07 kPa | 0.862 ± 0.0027
363.29 K, 981.18 kPa | 1.2947 ± 0.0033
363.29 K, 2225 kPa | 2.9208 ± 0.0062
363.29 K, 3356.7 kPa | 4.387 ± 0.009
